Measurements: patent publication US20260274892A1, “MACROCYCLIC BROAD SPECTRUM ANTIBIOTICS” (RQx Pharmaceuticals, Inc., priority 2017, published 2026)

Tests used:
[1] = tested on: Escherichia coli ATCC 25922; experiment: Minimum inhibitory concentration (MIC), CLSI broth micro-dilution, E. coli; type: cell-based; conditions: Escherichia coli, ATCC25922, 22 h, Table 6, cation adjusted Mueller Hinton Broth + 0.002% Tween-80, 35° C.
Method in brief: (§1)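 Antibacterial potency is measured as MIC by the CLSI broth dilution method. Bacteria at OD600 0.0005 in Tween-80-supplemented cation-adjusted Mueller Hinton broth face ten twofold compound dilutions for 22 h at 35° C.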

[2] = tested on: Methicillin Resistant Staphylococcus aureus strain USA 200; experiment: Minimum inhibitory concentration (MIC), CLSI broth micro-dilution, S. aureus; type: cell-based; conditions: Staphylococcus aureus, MRSA / USA200; Table 6; MRSA USA 200; cation adjusted Mueller Hinton Broth + 0.002% Tween-80; 35° C., 22 hours
Method in brief: as §1

Row | MIC [1] [µM] | MIC [2] [µM] | Compound
1 | 4.8 | 0.6 | CCCCCCc1ccc(C(=O)N[C@@H](CCN)C(=O)N(CCO)[C@@H]2C(=O)N[C@@H](C)C(=O)N[C@H](C(=O)NCC#N)Cc3ccc(O)c(c3)-c3cc2ccc3O)c(C)c1 (racemic) [Compound 475, rac-(8S,11S,14S)-N-(cyanomethyl)-3,18-dihydroxy-14-[2-hydroxyethyl-[rac-(2S)-4-amino-2-[(4-hexyl-2-methyl-benzoyl)amino]butanoyl]amino]-11-methyl-10,13-dioxo-9,12-diazatricyclo[13.3.1.12,6]icosa-1(18),2(20),3,5,15(19),16-hexaene-8-carboxamide]
2 | 1.1 | 0.026 | CCCCCCCc1ccc(C(=O)N[C@@H](CNC)C(=O)N(C)[C@@H]2C(=O)N[C@@H](C)C(=O)N[C@H](C(=O)NCC#N)Cc3ccc(OCCN)c(c3)-c3cc2ccc3OCCN)c(C)c1 (racemic) [Compound 453, rac-(8S,11S,14S)-3,18-bis(2-aminoethoxy)-N-(cyanomethyl)-11-methyl-14-[methyl-[rac-(2S)-2-[(4-heptyl-2-methyl-benzoyl)amino]-3-(methylamino)propanoyl]amino]-10,13-dioxo-9,12-diazatricyclo[13.3.1.12,6]icosa-1(18),2(20),3,5,15(19),16-hexaene-8-carboxamide]
3 | 0.066 | 0.0082 | Cc1nc(-c2ccc3c(c2)CCC3(C)C)ncc1C(=O)N[C@@H](CCN)C(=O)N(C)[C@@H]1C(=O)N[C@@H](C)C(=O)N[C@H](C(=O)NCC#N)Cc2ccc(OCCN)c(c2)-c2cc1ccc2OCCN (racemic) [Compound 234, rac-(8S,11S,14S)-3,18-bis(2-aminoethoxy)-N-(cyanomethyl)-11-methyl-14-[methyl-[rac-(2S)-4-amino-2-[[2-(1,1-dimethylindan-5-yl)-4-methyl-pyrimidine-5-carbonyl]amino]butanoyl]amino]-10,13-dioxo-9,12-diazatricyclo[13.3.1.12,6]icosa-1(18),2(20),3,5,15(19),16-hexaene-8-carboxamide]
4 | 2.1 | 0.032 | CCCCCCc1ncc(-c2ccc(C(=O)N[C@@H](CCN)C(=O)N(C)[C@@H]3C(=O)N[C@@H](C)C(=O)N[C@H](C(=O)NCC#N)Cc4ccc(OCCN)c(c4)-c4cc3ccc4OCCN)c(C)c2)cn1 (racemic) [Compound 204, rac-(8S,11S,14S)-3,18-bis(2-aminoethoxy)-N-(cyanomethyl)-11-methyl-14-[methyl-[rac-(2S)-4-amino-2-[[4-(2-hexylpyrimidin-5-yl)-2-methyl-benzoyl]amino]butanoyl]amino]-10,13-dioxo-9,12-diazatricyclo[13.3.1.12,6]icosa-1(18),2(20),3,5,15(19),16-hexaene-8-carboxamide]
5 | 0.094 | 0.012 | CCCCC1(c2ccc(-c3nc(C)c(C(=O)N[C@@H](CCN)C(=O)N(C)[C@@H]4C(=O)N[C@@H](C)C(=O)N[C@H](C(=O)NCC#N)Cc5ccc(OCCN)c(c5)-c5cc4ccc5OCCN)c(C)n3)cc2)CC1 (racemic) [Compound 283, rac-(8S,11S,14S)-3,18-bis(2-aminoethoxy)-N-(cyanomethyl)-11-methyl-14-[methyl-[rac-(2S)-4-amino-2-[[2-[4-(1-butylcyclopropyl)phenyl]-4,6-dimethyl-pyrimidine-5-carbonyl]amino]butanoyl]amino]-10,13-dioxo-9,12-diazatricyclo[13.3.1.12,6]icosa-1(18),2(20),3,5,15(19),16-hexaene-8-carboxamide]
6 | 4 | 0.094 | CCCCc1ccc(Oc2nc(C)c(C(=O)N[C@@H](CCN)C(=O)N(C)[C@@H]3C(=O)N[C@@H](C)C(=O)N[C@H](C(=O)NCC#N)Cc4ccc(OCCN)c(c4)-c4cc3ccc4OCCN)c(C)n2)cc1CCCC (racemic) [Compound 355, rac-(8S,11S,14S)-3,18-bis(2-aminoethoxy)-N-(cyanomethyl)-11-methyl-14-[methyl-[rac-(2S)-4-amino-2-[[2-(3,4-dibutylphenoxy)-4,6-dimethyl-pyrimidine-5-carbonyl]amino]butanoyl]amino]-10,13-dioxo-9,12-diazatricyclo[13.3.1.12,6]icosa-1(18),2(20),3,5,15(19),16-hexaene-8-carboxamide]
7 | 0.066 | 0.012 | CCCCCc1ccc(-c2ccc(C(=O)N[C@@H](CCN)C(=O)N(C)[C@@H]3C(=O)N[C@@H](C)C(=O)N[C@H](C(=O)NCC#N)Cc4ccc(OCCN)c(c4)-c4cc3ccc4OCCN)c(C)n2)cc1 (racemic) [Compound 205, rac-(8S,11S,14S)-3,18-bis(2-aminoethoxy)-N-(cyanomethyl)-11-methyl-14-[methyl-[rac-(2S)-4-amino-2-[[2-methyl-6-(4-pentylphenyl)pyridine-3-carbonyl]amino]butanoyl]amino]-10,13-dioxo-9,12-diazatricyclo[13.3.1.12,6]icosa-1(18),2(20),3,5,15(19),16-hexaene-8-carboxamide]
8 | 0.42 | 0.062 | CCCCc1ccc(-c2ccn(-c3ccc(C(=O)N[C@@H](CCN)C(=O)N(C)[C@@H]4C(=O)N[C@@H](C)C(=O)N[C@H](C(=O)NCC#N)Cc5ccc(OCCN)c(c5)-c5cc4ccc5OCCN)c(C)c3)n2)cc1 (racemic) [Compound 201, rac-(8S,11S,14S)-3,18-bis(2-aminoethoxy)-N-(cyanomethyl)-11-methyl-14-[methyl-[rac-(2S)-4-amino-2-[[4-[3-(4-butylphenyl)pyrazol-1-yl]-2-methyl-benzoyl]amino]butanoyl]amino]-10,13-dioxo-9,12-diazatricyclo[13.3.1.12,6]icosa-1(18),2(20),3,5,15(19),16-hexaene-8-carboxamide]
9 | 0.16 | 0.015 | Cc1nc(-c2cnc(-c3ccc(C(C)(C)C)cc3)nc2)ncc1C(=O)N[C@@H](CCN)C(=O)N(C)[C@@H]1C(=O)N[C@@H](C)C(=O)N[C@H](C(=O)NCC#N)Cc2ccc(OCCN)c(c2)-c2cc1ccc2OCCN (racemic) [Compound 232, rac-(8S,11S,14S)-3,18-bis(2-aminoethoxy)-N-(cyanomethyl)-11-methyl-14-[methyl-[rac-(2S)-4-amino-2-[[2-[2-(4-tert-butylphenyl)pyrimidin-5-yl]-4-methyl-pyrimidine-5-carbonyl]amino]butanoyl]amino]-10,13-dioxo-9,12-diazatricyclo[13.3.1.12,6]icosa-1(18),2(20),3,5,15(19),16-hexaene-8-carboxamide]

Row | Compound | MIC [1] [µM] | MIC [2] [µM]
10 | CCCCOc1ccc(-c2nc(C)c(C(=O)N[C@@H](CCN)C(=O)N(C)[C@@H]3C(=O)N[C@@H](C)C(=O)N[C@H](C(=O)NCC#N)Cc4ccc(OCCN)c(c4)-c4cc3ccc4OCCN)c(C)n2)cc1 (racemic) [Compound 331, rac-(8S,11S,14S)-3,18-bis(2-aminoethoxy)-N-(cyanomethyl)-11-methyl-14-[methyl-[rac-(2S)-4-amino-2-[[2-(4-butoxyphenyl)-4,6-dimethyl-pyrimidine-5-carbonyl]amino]butanoyl]amino]-10,13-dioxo-9,12-diazatricyclo[13.3.1.12,6]icosa-1(18),2(20),3,5,15(19),16-hexaene-8-carboxamide] | 0.13 | 0.0081
